{
  "source": "paper PMC6359803",
  "about": "“Inhibition of inflammatory response in human keratinocytes by magnetic nanoparticles functionalized with PBP10 peptide derived from the PIP2-binding site of human plasma gelsolin” (Journal of Nanobiotechnology, 2019)",
  "key": {"[1]": {"test_system": "E. coli RS218", "test": "Killing assay (CFU counting)", "type": "cell-based, Escherichia coli", "conditions": "E. coli RS218, 1 h, doses 2-10 µg/mL, dose-dependent", "experimental": "(§1) To assess the bactericidal activity of PBP10-derived peptides and PBP10-containing nanosystems against E. coli and S. aureus bacterial strains, a killing assay based on counting colony forming units (CFU) was performed. For this purpose, E. coli and S. aureus strains were grown to mid-log phase at 37 °C, re-suspended in PBS, brought to 10^8 CFU/ml (which corresponds to 0.5 OD at a wavelength 600 nm) and diluted 1:100 to obtain sample containing approx. 10^6 CFU/mL. Bacteria were then added to PBS containing different concentrations of PBP10, RhB-PBP10 and RhB-PBP10-Cys and their nanosystems at doses of 2, 5 and 10 µg/mL. After 1 h of incubation at 37 °C, the plates were transferred to ice and suspensions were diluted 10- to 1000-fold in PBS. Then, 10 μL aliquots were spotted on agar plates for overnight culture at 37 °C in order to determine CFUs."}, "[2]": {"test_system": "S. aureus A1", "test": "Killing assay (CFU counting)", "type": "cell-based, Staphylococcus aureus", "conditions": "S. aureus A1, 1 h, doses 2-10 µg/mL, dose-dependent", "experimental": "as §1"}, "[3]": {"test_system": "HaCaT cells", "test": "Nitric oxide assay (nitrite, Griess reagent)", "type": "cell-based, human", "conditions": "1 µg/mL LTA-stimulated HaCaT, 10 µg/mL agent, 24 h", "experimental": "The nitric oxide assay was performed as described previously and the quantity of nitrite in the culture medium was measured as an indicator of NO production. Amounts of nitrite, a stable metabolite of NO, were measured using the Griess reagent (1% sulfanilamide and 0.1% naphthylethylenediamine dihydrochloride in 2.5% phosphoric acid). Briefly, 5 × 10^4 HaCaT cells were seeded in transparent 96-well plates and cultured until 85% confluence was reached. After that, cells were washed with PBS, and agents at final concentrations of 2, 5 and 10 µg/mL were added to each well. Simultaneously, keratinocytes were stimulated with 1 µg/mL LPS (E. coli 026:B6), 1 µg/mL LTA (from Staphylococcus aureus) or heat-inactivated suspensions of E. coli or S. aureus (~ 10^6 CFU/mL) and incubated in serum-free medium for 24 h. Next, 50 µL of cell culture medium was mixed with 50 µL of Griess reagent, incubated at room temperature for 15 min, and the absorbance at 540 nm was measured in a microplate reader. Fresh culture medium was used as a blank in every experiment."}, "[4]": {"test_system": "HaCaT cells", "test": "ROS formation (DFCH-DA fluorescence)", "type": "cell-based, human", "conditions": "1 µg/mL LPS-stimulated HaCaT, 10 µg/mL agent, 24 h", "experimental": "The generation of reactive oxygen species from stimulated HaCaT cells was measured using 2′,7′-dichlorofluorescein diacetate (DFCH-DA) as the fluorescent probe. For this purpose, 5 × 10^4 of HaCaT cells, cultured until ~ 85% confluence and incubated simultaneously with peptides or their magnetic derivatives at concentrations of 2, 5 and 10 µg/mL and with 1 µg/mL LPS/LTA or heat-inactivated bacteria for 24 h. Next, cells were washed twice with PBS, and DFCH-DA in PBS at the concentration of 20 µM was added. Fluorescence was measured for 90 min immediately after the addition of the dye at excitation/emission wavelengths of 488/535 nm."}, "[5]": {"test": "MTT viability / metabolic activity assay", "type": "cell-based, human", "conditions": "human", "experimental": "(§2) The viability and metabolic activity of cells were measured using a microculture tetrazolium test (MTT; 3-(4,5-dimethylthiazol-2-yl)-2,5-diphenyltetrazolium bromide) as described previously. HaCaT cells were seeded at a density of 5 × 10^4 cells/well in transparent 96-well plates and cultured until ~ 85% confluence; after that medium was replaced with serum-free medium and cells were serum starved for another 12 h. To determine the non-toxic concentrations, the peptides and their magnetic derivatives in concentrations ranging from 1 to 50 µg/mL were added to each well and incubated for 24 h at 37 °C under 5% CO2. The optical density at 490 nm was assessed after 2 h incubation of plates with MTT solution (5 mg/mL) and the addition of formazan salt in dimethyl sulfoxide (DMSO). The absorbance value obtained in cultures of control cells (with solvents alone) was taken as 100%. The average of all the experiments is shown as cell viability percentage in comparison to the control."}, "[6]": {"test": "Fluorescence of unbound peptide after magnetic separation", "type": "physicochemical", "conditions": "fluorescence relative to 1 mg/mL free peptide", "experimental": "PBP10-containing nanosystems were obtained by non-covalent bonding including electrostatic interactions or chemisorption of thiol groups to the gold surface. Nanoparticles (MNP@NH2 or MNP@Au) were dispersed in PBS to obtain solutions of 10 mg/mL concentration. Then nanoparticles were diluted to the concentration of 1 mg/mL and were mixed with the appropriate amount (1:1 volume ratio) of PBP peptide or PBP modified by cysteine and rhodamine (1 mg/mL solutions in PBS buffer). Prepared solutions were incubated for 2 days (nucleation) and used for further investigations. In order to avoid the loss of agents during the preparation process, no further purification of nanosystems was performed. To evaluate the efficiency of peptide attachment, fluorescence of unbound PBP10 peptides in solutions after magnetic separation of nanosystems was measured."}, "[7]": {"test_system": "HaCaT cells", "test": "IL-8 release (ELISA)", "type": "cell-based, human", "conditions": "24 h", "experimental": "In order to assess release of interleukin-8 (IL-8) from stimulated keratinocytes, 5 × 10^4 HaCaT cells were treated with agents at concentrations of 2, 5 and 10 µg/mL and stimulated with 1 µg/mL LPS/LTA. The medium from LPS/LTA-treated cells was harvested after 24 h of incubation and the level of IL-8 was evaluated using an IL-8 Human ELISA Kit (Thermo Fisher Scientific)."}, "[8]": {"test_system": "A549 cells", "test": "Cell stiffness by atomic force microscopy (AFM) indentation", "type": "cell-based, human", "conditions": "1 µg/mL LPS 24 h, agent 5 µg/mL", "experimental": "The stiffness of cells after 24 h stimulation with 1 µg/mL LPS was measured by indentation using atomic force microscopy (Nanowizard 4 Bioscience AFM, JPK Instruments, Germany). Adenocarcinomic human alveolar basal epithelial cells (A549 ATCC® CCL-185™) were cultured in high-glucose DMEM supplemented with 10% FBS at 37 °C with 5% CO2, placed on Ø 35 mm Petri dishes and allowed to attach and spread for 24 h before simultaneous stimulation with 1 µg/mL LPS (E. coli 026:B6) and treatment with 5 µg/mL of PBP10 or PBP10-based nanosystems. Immediately before the experiment, cells were placed in a CO2-independent buffer (Thermo Fisher Scientific, USA) to prevent changes in pH of the cellular environment during analysis. Elasticity measurements were taken with AFM working in force spectroscopy mode in liquid conditions, and cantilevers (ORC8, Bruker) with a spring constant of 0.1 N/m were used. From each tested cell, up to 64 force-indentation curves were collected in a grid of 8 × 8 pixels corresponding to a scan area of 10 × 10 µm with a maximal force of 2 nN. For indentation measurements, more than 1100 force-distance curves were recorded for each group from at least ten different cells. To determine the apparent Young’s modulus of different cells, force-indentation curves were fit to the Hertz contact model."}, "[9]": {"test_system": "HaCaT cells", "test": "MTT viability / metabolic activity assay", "type": "cell-based, human", "conditions": "24 h", "experimental": "as §2"}},
  "note": "Like-named read-outs stand apart in the source and are kept apart here. Ends that are not written are not given here. Peptide text beside a SMILES is read from it. * marks the point of attachment. RhodamineB = CCN(CC)c1ccc2c(-c3ccccc3C(=O)*)c3ccc(=[N+](CC)CC)cc-3oc2c1",
  "data": [
    {"molecule": "CCN(CC)c1ccc2c(-c3ccccc3C(=O)N[C@@H](CCC(N)=O)C(=O)N[C@@H](CCCNC(=N)N)C(=O)N[C@@H](CC(C)C)C(=O)N[C@@H](Cc3ccccc3)C(=O)N[C@@H](CCC(N)=O)C(=O)N[C@H](C(=O)N[C@@H](CCCCN)C(=O)NCC(=O)N[C@@H](CCCNC(=N)N)C(=O)N[C@@H](CCCNC(=N)N)C(=O)O)C(C)C)c3ccc(=[N+](CC)CC)cc-3oc2c1", "note": "[RhB-PBP10, rhodamine B-QRLFQVKGRR] (RhodamineB-QRLFQVKGRR-OH; N-terminus and C-terminus assumed)", "values": [
      {"measurement": "decrease of bacterial viability", "setting": "[1]", "result": "more than 95%"},
      {"measurement": "decrease of bacterial viability", "setting": "[2]", "result": "more than 95%"},
      {"measurement": "NO production (% of untreated stimulated control)", "setting": "[3]", "result": "63.16 ± 14.01", "unit": "%"},
      {"measurement": "ROS production (% of untreated stimulated control)", "setting": "[4]", "result": "30.33 ± 3.31", "unit": "%"}
    ]},
    {"molecule": "CCN(CC)c1ccc2c(-c3ccccc3C(=O)N[C@@H](CCC(N)=O)C(=O)N[C@@H](CCCNC(=N)N)C(=O)N[C@@H](CC(C)C)C(=O)N[C@@H](Cc3ccccc3)C(=O)N[C@@H](CCC(N)=O)C(=O)N[C@H](C(=O)N[C@@H](CCCCN)C(=O)NCC(=O)N[C@@H](CCCNC(=N)N)C(=O)N[C@@H](CCCNC(=N)N)C(=O)N[C@@H](CS)C(=O)O)C(C)C)c3ccc(=[N+](CC)CC)cc-3oc2c1", "note": "[RhB-PBP10-Cys] (RhodamineB-QRLFQVKGRRC-OH; N-terminus and C-terminus assumed)", "values": [
      {"measurement": "viability at 24 h, 10 µg/mL", "setting": "[5]; 10 µg/mL, 24 h, control = 100%, read-out: viability of HaCaT cells", "result": "80 ± 6.6", "unit": "%"},
      {"measurement": "decrease of bacterial viability", "setting": "[1]", "result": "more than 95%"},
      {"measurement": "decrease of bacterial viability", "setting": "[2]", "result": "more than 95%"},
      {"measurement": "% of remaining peptide (unbound) in solution after magnetic separation", "setting": "[6]", "result": "≤ 5", "unit": "%"}
    ]},
    {"molecule": "Lipopolysaccharide from Escherichia coli O26:B6 [LPS]", "values": [
      {"measurement": "IL-8 level", "setting": "[7]; 1 µg/mL LPS-stimulated HaCaT", "result": "504.9 ± 49.39", "unit": "pg/mL"},
      {"measurement": "Young's modulus", "setting": "[8]; indentation depth 1 µm", "result": "3.1 ± 0.08", "unit": "kPa"},
      {"measurement": "Young's modulus", "setting": "[8]; indentation depth 300 nm", "result": "4.3 ± 0.07", "unit": "kPa"}
    ]},
    {"molecule": "QRLFQVKGRR [PBP10, QRLFQVKGRR]", "values": [
      {"measurement": "viability at 24 h, 10 µg/mL", "setting": "[5]", "result": "83 to 101", "unit": "%"},
      {"measurement": "IC50", "setting": "[9]", "result": "> 50", "unit": "µg/mL"}
    ]},
    {"molecule": "lipoteichoic acid from Staphylococcus aureus [LTA]", "values": [
      {"measurement": "IL-8 level", "setting": "[7]; 1 µg/mL LTA-stimulated HaCaT", "result": "749.2 ± 55.81", "unit": "pg/mL"}
    ]}
  ]
}
